Measured values: article PMC6868852, “Molecular cloning and characterization of a grapevine (Vitis vinifera L.) serotonin N-acetyltransferase (VvSNAT2) gene involved in plant defense” (BMC Genomics, 2019)

Test system: VvSNAT2
Experiment: HPLC product quantification; Lineweaver-Burk
Assay type: biochemical, Vitis vinifera
Details: acetyl-CoA 0.5 mM; 100 mM potassium phosphate pH 8.8; 30 min at 45 °C (Fig. 3 legend; Methods print below 30 °C)

With `NCCc1c[nH]c2ccc(O)cc12` [serotonin] the Km was 392 µM.
